Results on five molecules are retold here after patent US9115143B2, “Substituted indole derivatives as gamma secretase modulators” (Janssen Pharmaceuticals, Inc., priority 2011, dated 2015).

The structures appear in SMILES notation.

Data set [1] concerns Aβ42. Put plainly: In vivo efficacy B-1a: brain soluble Aβ42 in non-transgenic rodents, ELISA. The arrangement: species or system mouse. The conditions noted are these: dose 30 mg/kg oral dosing, brain soluble fraction, untreated animals (Ctrl) set at 100; for response vs control in vivo at 30 mg/kg: Mus musculus, po, read-out: Aβ42 (% vs Ctrl)_Mean; for Aβ42 (% vs Ctrl)_Mean: 30 mg/kg. An excerpt:
(§1) To determine whether acute administration of an Aβ42 lowering agent would reduce Aβ42 levels in vivo, non-transgenic rodents, e.g. mice or rats were used. Animals treated with the Aβ42 lowering agent were examined and compared to those untreated or treated with vehicle and brain levels of soluble Aβ42 and total Aβ were quantitated by standard techniques, for example, using ELISA. Treatment periods varied from hours (h) to days and were adjusted based on the results of the Aβ42 lowering once a time course of onset of effect could be established.
(§2) A typical protocol for measuring Aβ42 lowering in vivo is shown but it is only one of many variations that could be used to optimize the levels of detectable Aβ. For example, Aβ42 lowering compounds were formulated in 20% of Captisol® (a sulfobutyl ether of β-cyclodextrin) in water or 20% hydroxypropyl β cyclodextrin. The Aβ42 lowering agents were administered as a single oral dose or by any acceptable route of administration to overnight fasted animals. After 4 h, the animals were sacrificed and Aβ42 levels were analysed.
(§3) Blood was collected by decapitation and exsanguinations in EDTA-treated collection tubes. Blood was centrifuged at 1900 g for 10 minutes (min) at 4° C. and the plasma recovered and flash frozen for later analysis. The brain was removed from the cranium and hindbrain. The cerebellum was removed and the left and right hemisphere were separated. The left hemisphere was stored at −18° C. for quantitative analysis of test compound levels. The right hemisphere was rinsed with phosphate-buffered saline (PBS) buffer and immediately frozen on dry ice and stored at −80° C. until homogenization for biochemical assays.
(§4) Mouse brains from non-transgenic animals were resuspended in 8 volumes of 0.4% DEA (diethylamine)/50 mM NaCl containing protease inhibitors (Roche-11873580001 or 04693159001) per gram of tissue, e.g. for 0.158 g brain, add 1.264 mL of 0.4% DEA. All samples were homogenized in the FastPrep-24 system (MP Biomedicals) using lysing matrix D (MPBio #6913-100) at 6 m/s for 20 seconds. Homogenates were centrifuged at 20800×g for 5 min and supernatants collected. Supernatants were centrifuged at 221.300×g for 50 min. The resulting high speed supernatants were then transferred to fresh eppendorf tubes. Nine parts of supernatant were neutralized with 1 part 0.5 M Tris-HCl pH 6.8 and used to quantify Aβtotal and Aβ42.
(§5) To quantify the amount of Aβtotal and Aβ42 in the soluble fraction of the brain homogenates, Enzyme-Linked-Immunosorbent-Assays were used. Briefly, the standards (a dilution of synthetic Aβ1-40 and Aβ1-42, Bachem) were prepared in 1.5 mL Eppendorf tube in Ultraculture, with final concentrations ranging from 10000 to 0.3 pg/mL. The samples and standards were co-incubated with HRPO-labelled N-terminal antibody JRF/rAμ/2 for Aβ42 detection and with the biotinylated mid-domain antibody 4G8 for Aβtotal detection. 50 μl of conjugate/sample or conjugate/standards mixtures were then added to the antibody-coated plate (the capture antibodies selectively recognize the C-terminal end of Aβ42, antibody JRF/cAβ42/26, for Aβ42 detection and the N-terminus of AB, antibody JRF/rAβ/2, for Aβtotal detection). The plate was allowed to incubate overnight at 4° C. in order to allow formation of the antibody-amyloid complex. Following this incubation and subsequent wash steps the ELISA for Aβ42 quantification was finished by addition of Quanta Blu fluorogenic peroxidase substrate according to the manufacturer's instructions (Pierce Corp., Rockford, Ill.). A reading was performed after 10 to 15 min (excitation 320 nm/emission 420 nm).
In this model a Aβ42 lowering compared to untreated animals would be advantageous, in particular a Aβ42 lowering with at least 10%, more in particular a Aβ42 lowering with at least 20%.
The results are shown in Table 4 (dose 30 mg/kg oral dosing) (value for untreated animals as control (Ctrl) was set at 100): […]
For orientation: An ELISA detects its analyte on a solid surface through an enzyme-linked reagent.

The test system of data set [2] is Aβtotal. Kind of data set: Screening for γ-secretase-modulating activity: Aβtotal in supernatant of SKNBE2 cells carrying hAPP 695 wild type (Alphalisa). The conditions noted are these: overnight incubation, Alphalisa on supernatant. Type of data set: cell-based, human. The procedure, abridged:
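SKNBE2 human neuroblastoma cells expressing wild-type hAPP 695 (10^4/well) were incubated overnight at 37 °C, 5% CO2 with compound at several concentrations. Supernatant Aβ42 and Aβtotal measured by AlphaLISA sandwich immunoassays; IC50 from 4-parameter fit of percent of untreated control versus log concentration.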

The subject of data set [3] is Aβtotal. Put plainly: In vivo efficacy B-1a/B-2a: brain soluble Aβtotal in non-transgenic rodents, ELISA. Further details: species or system mouse. Particulars: dose 30 mg/kg oral dosing, brain soluble fraction, untreated animals (Ctrl) set at 100; for response vs control in vivo at 30 mg/kg: Mus musculus, po, 4 h, read-out: Aβtotal (% vs Ctrl)_Mean; for Aβtotal (% vs Ctrl)_Mean: 30 mg/kg.
Text: as §1, §2, §3, §4, §5
For Aβtotal detection, a Streptavidine-Peroxidase-Conjugate was added, followed 60 min later by an additional wash step and addition of Quanta Blu fluorogenic peroxidase substrate according to the manufacturer's instructions (Pierce Corp., Rockford, Ill.). A reading was performed after 10 to 15 min (excitation 320 nm/emission 420 nm). […]

Setting [4] is: Homo sapiens, SKNBE2, SKNBE2 human neuroblastoma cells carrying hAPP 695 wild type.

`N#Cc1ccc2[nH]c(-c3nc4n(n3)CCCC4c3cccc(OC(F)(F)F)c3)cc2c1` (centres unmarked) [Compound 20, 2-[5,6,7,8-tetrahydro-8-[3-(trifluoromethoxy)phenyl][1,2,4]triazolo[1,5-a]pyridin-2-yl]-1H-indole-5-carbonitrile] yielded a melting point of 225.1 °C. In data set [1], the response vs control in vivo at 30 mg/kg is 93%. Besides, the half-maximal inhibitory concentration (IC50) in data set [2] (setting [4]) is above 10 µM. The response vs control in vivo at 30 mg/kg in data set [3] stood at 113%.
`COc1c(C#N)ccc2[nH]c(-c3cn4c(n3)C(c3ccc(F)cc3C)OCC4)cc12` (centres unmarked) [Compound 46, 2-[8-(4-fluoro-2-methylphenyl)-5,6-dihydro-8H-imidazo[2,1-c][1,4]oxazin-2-yl]-4-methoxy-1H-indole-5-carbonitrile] gave a melting point of 236.2 °C. The response vs control in vivo at 30 mg/kg in data set [1] turned out to be 52%. Besides, the IC50 in data set [2] (setting [4]) is above 10 µM. For the same molecule, the “Aβtotal (% vs Ctrl)_Mean” value in data set [3] was 88 % vs Ctrl.
Consider `Cc1cc(F)ccc1C1CCCn2nc(-c3cc4cc(C#N)ccc4[nH]3)nc21` (centres unmarked) [Compound 9, 2-[8-(4-fluoro-2-methylphenyl)-5,6,7,8-tetrahydro[1,2,4]triazolo[1,5-a]pyridin-2-yl]-1H-indole-5-carbonitrile], for which the melting point is 244.9 °C. Further, the “Aβ42 (% vs Ctrl)_Mean” value in data set [1] was 66 % vs Ctrl. In data set [2] (setting [4]), the half-inhibitory concentration (IC50) is above 10 µM. In addition, in data set [3], the “Aβtotal (% vs Ctrl)_Mean” value came to 97 % vs Ctrl.
For the molecule `COc1c(C#N)ccc2[nH]c(-c3cn4c(n3)C(c3ccc(F)cc3C)OCC4)cc12` (centres unmarked) [Compound 47, 2-[8-(4-fluoro-2-methylphenyl)-5,6-dihydro-8H-imidazo[2,1-c][1,4]oxazin-2-yl]-4-methoxy-1H-indole-5-carbonitrile], the melting point was determined as 242.6 °C. Moreover, the “Aβ42 (% vs Ctrl)_Mean” value in data set [1] was 45 % vs Ctrl. For the same molecule, the half-maximal inhibitory concentration (IC50) in data set [2] (SKNBE2 human neuroblastoma cells carrying hAPP 695 wild type) is above 10 µM. Further, the “Aβtotal (% vs Ctrl)_Mean” value in data set [3] was determined as 117 % vs Ctrl.
`N#Cc1ccc2[nH]c(-c3nc4n(n3)CCCC4c3ccccc3C(F)(F)F)cc2c1` (centres unmarked) [Compound 18, 2-[5,6,7,8-tetrahydro-8-[2-(trifluoromethyl)phenyl][1,2,4]triazolo[1,5-a]pyridin-2-yl]-1H-indole-5-carbonitrile]: the melting point was found to be 229 °C. Moreover, in data set [1], the response vs control in vivo at 30 mg/kg was 88%. Further, the IC50 in data set [2] (setting [4]) is above 10 µM. Besides, the response vs control in vivo at 30 mg/kg in data set [3] was determined as 102%.

The melting point is the temperature, or range, at which the solid turns liquid. A word on the IC50: it is the concentration needed to halve the response being measured. A high value points to weaker potency.
